Data: the NIST ThermoML archive (doi:10.1021/je100932m)
Numbers after ± are expanded uncertainties.

Details: Liquid

vapor or sublimation pressure (337.57 K) | vapor or sublimation pressure (329.97 K) | SMILES
101.3 ± 0.86 kPa | – | CO [methanol]
– | 101.3 ± 0.86 kPa | COC(C)=O [methyl ethanoate]
